Assay results taken from patent publication US20260295067A1, “PANRAS INHIBITOR ANTIBODY-DRUG CONJUGATES AND METHODS OF USE THEREOF” (NOVARTIS AG, priority 2023, published 2026).

What was measured:
CDK6 = conditions: Finn et al. (2009); cited from earlier work
CDK4 = conditions: Finn et al. (2009); cited from earlier work
HPAC = assay: CellTiter-Glo proliferation/survival assay, HPAC; format: cell-based; conditions: Homo sapiens, 120 h, 5 days, 0.005-100 nM
Procedure: (§1) The panRAS antibody drug conjugates were tested against the following cancer cell lines: • LU65: JCRB No. JCRB0079 cultured in RPMI-1640+10% FBS • HPAC: ATCC No. CRL-2119 cultured in DMEM:HAM's F12+5% FBS • NCI-H727: ATCC No. CRL-5815 cultured in RPMI-1640+10% FBS • SW1271: ATCC No. CRL-2177 cultured in DMEM+10% FBS
(§2) The ability of the panRAS antibody drug conjugates to inhibit cell proliferation and survival was assessed using the Promega CellTiter-Glo® proliferation assay.
(§3) Cell lines were cultured in media that is optimal for their growth at 5% CO2, 37° C. in a tissue culture incubator. Prior to seeding for the proliferation assay, the cells were split at least 2 days before the assay to ensure optimal growth density. On the day of seeding, cell viability and cell density were determined using a cell counter (Vi-Cell XR Cell Viability Analyzer, Beckman Coulter). […] Plates were incubated at 5% CO2, 37° C. for 5 days in a tissue culture incubator, after which cell viability was assessed through the addition of 25 μL of CellTiter Glo® (Promega, cat #G7573), a reagent which lyses cells and measures total adenosine triphosphate (ATP) content. Plates were incubated at room temperature for 10 minutes to stabilize luminescent signals prior to reading using a luminescence reader (EnVision Multilabel Plate Reader, PerkinElmer). […]

H727 = assay: CellTiter-Glo proliferation/survival assay, H727; format: cell-based; conditions: Homo sapiens, NCI-H727, 120 h, 5 days, 0.005-100 nM
Procedure: as §1, §2, §3

SW1271 = assay: CellTiter-Glo proliferation/survival assay, SW1271; format: cell-based; conditions: 120 h, 5 days, 0.005-100 nM
Procedure: as §1, §2, §3

Row | Compound | IC50 (CDK6) | IC50 (CDK4) | IC50 (HPAC) | IC50 (H727) | IC50 (SW1271)
1 | CC(=O)c1c(C)c2cnc(Nc3ccc(N4CCNCC4)cn3)nc2n(C2CCCC2)c1=O [Palbociclib, 6-Acetyl-8-cyclopentyl-5-methyl-2-{[5-(1-piperazinyl)-2-pyridinyl]amino}pyrido[2,3-d]pyrimidin-7(8H)-one] | 16 nM | […] | – | – | –
2 | C=CC(=O)N1CCN(c2nc(=O)n(-c3c(C)ccnc3C(C)C)c3nc(-c4c(O)cccc4F)c(F)cc23)[C@@H](C)C1 [Sotorasib] | – | – | > 100 nM | > 100 nM | > 100 nM
